According to patent US11739098B2 (BRISTOL-MYERS SQUIBB COMPANY, priority 2017, dated 2023):

Columns and labels:
Assay type in all cases: cell-based
human TLR8 = target: T1, human TLR8 (Homo sapiens, UniProt Q9NR97); assay: TLR8 inhibition reporter assay (HEK-Blue cells, SEAP reporter, R848 stimulation); details: HEK-Blue cells overexpressing human TLR8, SEAP reporter, R848 15.9 μM
T1 construct: host or cells: HEK-Blue cells (HEK293-derived reporter line)
T1 sequence (Q9NR97 27-1041): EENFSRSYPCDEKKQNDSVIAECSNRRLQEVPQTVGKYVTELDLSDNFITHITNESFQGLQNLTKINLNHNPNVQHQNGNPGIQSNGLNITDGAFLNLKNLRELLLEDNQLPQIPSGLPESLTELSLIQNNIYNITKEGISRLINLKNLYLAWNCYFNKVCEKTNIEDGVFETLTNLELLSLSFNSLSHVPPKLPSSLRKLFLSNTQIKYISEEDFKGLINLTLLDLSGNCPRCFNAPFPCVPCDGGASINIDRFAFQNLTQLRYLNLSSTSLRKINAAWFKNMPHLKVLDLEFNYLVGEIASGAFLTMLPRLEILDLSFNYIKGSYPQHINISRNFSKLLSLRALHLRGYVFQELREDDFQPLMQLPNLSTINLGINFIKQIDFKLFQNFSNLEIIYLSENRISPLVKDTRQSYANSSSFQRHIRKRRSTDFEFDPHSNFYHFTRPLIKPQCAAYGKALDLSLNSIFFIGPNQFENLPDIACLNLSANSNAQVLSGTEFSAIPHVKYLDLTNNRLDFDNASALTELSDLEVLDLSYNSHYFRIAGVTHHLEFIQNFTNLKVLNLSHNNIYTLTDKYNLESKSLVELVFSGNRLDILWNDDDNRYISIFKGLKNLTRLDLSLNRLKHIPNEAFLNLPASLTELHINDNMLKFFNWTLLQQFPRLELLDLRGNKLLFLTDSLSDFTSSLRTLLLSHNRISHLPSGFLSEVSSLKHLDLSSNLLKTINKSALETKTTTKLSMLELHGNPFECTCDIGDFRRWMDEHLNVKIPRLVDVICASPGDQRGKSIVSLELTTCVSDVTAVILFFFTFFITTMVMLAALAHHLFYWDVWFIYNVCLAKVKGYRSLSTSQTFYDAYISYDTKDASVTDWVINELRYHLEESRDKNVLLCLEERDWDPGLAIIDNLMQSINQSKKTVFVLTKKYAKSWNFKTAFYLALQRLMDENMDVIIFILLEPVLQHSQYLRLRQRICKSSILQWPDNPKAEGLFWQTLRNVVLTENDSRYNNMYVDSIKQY
Summary of the method: (§1)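 Percent inhibition of agonist-induced SEAP secretion in HEK-Blue cells after 22 h at 37 °C. Stimuli: 7.5 μM gardiquimod, 15.9 μM R848, 5 nM ODN2006 for TLR7, TLR8 and TLR9, added after 30 min compound exposure over a 0.05 nM–50 μM range.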

human TLR9 = target: T2, human TLR9 (Homo sapiens, UniProt Q9NR96); assay: TLR9 inhibition reporter assay (HEK-Blue cells, SEAP reporter, ODN2006 stimulation); details: HEK-Blue cells overexpressing human TLR9, SEAP reporter, ODN2006 5 nM
T2 construct: host or cells: HEK-Blue cells (HEK293-derived reporter line)
T2 sequence (Q9NR96 26-1032): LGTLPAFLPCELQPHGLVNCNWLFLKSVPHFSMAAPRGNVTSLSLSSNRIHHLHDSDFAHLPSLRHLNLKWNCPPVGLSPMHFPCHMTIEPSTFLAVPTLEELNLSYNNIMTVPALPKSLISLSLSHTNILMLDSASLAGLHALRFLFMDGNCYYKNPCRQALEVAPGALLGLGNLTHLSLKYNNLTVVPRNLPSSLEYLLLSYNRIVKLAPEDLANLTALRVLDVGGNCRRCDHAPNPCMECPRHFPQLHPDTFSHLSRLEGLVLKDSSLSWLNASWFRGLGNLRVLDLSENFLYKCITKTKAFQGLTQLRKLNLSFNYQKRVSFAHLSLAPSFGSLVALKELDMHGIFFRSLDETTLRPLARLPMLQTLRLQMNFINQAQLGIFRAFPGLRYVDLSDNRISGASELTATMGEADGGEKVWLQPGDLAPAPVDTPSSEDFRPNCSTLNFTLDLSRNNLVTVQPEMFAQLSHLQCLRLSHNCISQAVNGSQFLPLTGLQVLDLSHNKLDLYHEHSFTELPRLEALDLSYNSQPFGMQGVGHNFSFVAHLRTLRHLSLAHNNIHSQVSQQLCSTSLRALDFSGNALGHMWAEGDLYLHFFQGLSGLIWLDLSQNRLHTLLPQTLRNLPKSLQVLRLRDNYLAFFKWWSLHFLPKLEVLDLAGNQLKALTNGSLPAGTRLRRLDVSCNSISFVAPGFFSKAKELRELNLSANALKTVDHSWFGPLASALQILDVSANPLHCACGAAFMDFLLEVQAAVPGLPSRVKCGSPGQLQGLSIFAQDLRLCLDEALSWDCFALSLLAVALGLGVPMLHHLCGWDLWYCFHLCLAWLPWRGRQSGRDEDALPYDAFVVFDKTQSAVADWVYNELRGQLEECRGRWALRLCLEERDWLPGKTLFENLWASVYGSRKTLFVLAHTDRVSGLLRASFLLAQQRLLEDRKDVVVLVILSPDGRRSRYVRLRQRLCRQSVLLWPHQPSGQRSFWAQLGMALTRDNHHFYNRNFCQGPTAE
Summary of the method: as §1

human TLR7 = target: T3, human TLR7 (Homo sapiens, UniProt Q9NYK1); assay: TLR7 inhibition reporter assay (HEK-Blue cells, SEAP reporter, gardiquimod stimulation); details: HEK-Blue cells overexpressing human TLR7, SEAP reporter, gardiquimod 7.5 μM
T3 construct: host or cells: HEK-Blue cells (HEK293-derived reporter line)
T3 sequence (Q9NYK1 27-1049): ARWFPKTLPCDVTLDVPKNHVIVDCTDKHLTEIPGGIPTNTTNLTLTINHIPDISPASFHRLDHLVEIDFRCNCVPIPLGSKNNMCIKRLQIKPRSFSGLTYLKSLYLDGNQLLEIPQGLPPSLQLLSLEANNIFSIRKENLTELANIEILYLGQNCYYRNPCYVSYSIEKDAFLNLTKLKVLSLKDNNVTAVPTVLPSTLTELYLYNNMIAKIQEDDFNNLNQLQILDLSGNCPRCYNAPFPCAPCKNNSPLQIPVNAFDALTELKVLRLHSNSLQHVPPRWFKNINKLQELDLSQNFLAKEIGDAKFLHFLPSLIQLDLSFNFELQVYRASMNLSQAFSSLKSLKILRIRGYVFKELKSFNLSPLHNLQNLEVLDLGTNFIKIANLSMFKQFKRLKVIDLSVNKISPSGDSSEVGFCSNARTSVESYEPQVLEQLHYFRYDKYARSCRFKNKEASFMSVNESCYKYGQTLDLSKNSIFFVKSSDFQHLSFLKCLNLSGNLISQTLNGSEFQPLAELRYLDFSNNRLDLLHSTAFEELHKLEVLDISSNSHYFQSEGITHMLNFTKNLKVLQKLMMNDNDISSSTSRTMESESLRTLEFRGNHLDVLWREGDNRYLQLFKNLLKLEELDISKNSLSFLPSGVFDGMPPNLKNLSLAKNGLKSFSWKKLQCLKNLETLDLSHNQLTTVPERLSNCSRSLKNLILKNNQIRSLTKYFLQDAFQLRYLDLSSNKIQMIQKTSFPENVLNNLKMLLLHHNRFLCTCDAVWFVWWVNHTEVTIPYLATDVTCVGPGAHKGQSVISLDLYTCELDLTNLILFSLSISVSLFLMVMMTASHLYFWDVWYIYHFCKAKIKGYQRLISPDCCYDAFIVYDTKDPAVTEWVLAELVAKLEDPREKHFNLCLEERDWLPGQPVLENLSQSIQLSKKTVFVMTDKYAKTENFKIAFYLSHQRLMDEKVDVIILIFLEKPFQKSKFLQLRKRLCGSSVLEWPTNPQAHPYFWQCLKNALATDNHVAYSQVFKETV
Summary of the method: as §1

Structure (SMILES)	IC50 (human TLR8) [nM]	IC50 (human TLR9) [nM]	IC50 (human TLR7) [nM]
Cc1cc(-c2[nH]c3ccc(C4CCN(CCS(C)(=O)=O)CC4)cc3c2C(C)C)cn2nncc12 [Example 785, 6-(3-isopropyl-5-(1-(2-(methylsulfonyl)ethyl)piperidin-4-yl)-1H-indol-2-yl)-4-methyl-[1,2,3]triazolo[1,5-a]pyridine]	100 to 1000	1000 to 50000	1000 to 50000
CC(C)c1c(-c2cn(C)c3ncccc23)[nH]c2ccc(C3CCN(CC(C)(C)O)CC3)cc12 [Example 750, 1-(4-(3-isopropyl-2-(1-methyl-1H-pyrrolo[2,3-b]pyridin-3-yl)-1H-indol-5-yl)piperidin-1-yl)-2-methylpropan-2-ol]	< 100	1000 to 50000	< 100
COc1cc(CN(C)C)cc(CN2CCC(c3ccc4[nH]c(-c5ccnc6[nH]ncc56)c(C(C)C)c4c3)CC2)c1O [Example 924, 4-((dimethylamino)methyl)-2-((4-(3-isopropyl-2-(1H-pyrazolo[3,4-b]pyridin-4-yl)-1H-indol-5-yl)piperidin-1-yl)methyl)-6-methoxyphenol]	< 100	100 to 1000	< 100
CC(C)c1c(-c2ccnc3[nH]ncc23)[nH]c2ccc(C3CCN(CCCN4CCOCC4)CC3)cc12 [Example 857, 4-(3-(4-(3-isopropyl-2-(1H-pyrazolo[3,4-b]pyridin-4-yl)-1H-indol-5-yl)piperidin-1-yl)propyl)morpholine]	1000 to 50000	100 to 1000	1000 to 50000
Cc1cc(-c2[nH]c3ccc(C4CCNCC4)cc3c2C(C)C)cn2cc(C(=O)N(C)C)nc12 [Example 265, 6-(3-isopropyl-5-(piperidin-4-yl)-1H-indol-2-yl)-N,N,8-trimethylimidazo[1,2-a]pyridine-2-carboxamide]	< 100	1000 to 50000	< 100
COc1cc(-c2[nH]c3ccc(C4CCN(C(=O)CN(C)C)CC4)cc3c2C(C)C)nn2ncnc12 [Example 460, 2-(dimethylamino)-1-(4-(3-isopropyl-2-(8-methoxy-[1,2,4]triazolo[1,5-b]pyridazin-6-yl)-1H-indol-5-yl)piperidin-1-yl)ethan-1-one]	< 100	1000 to 50000	< 100
CC(C)c1c(-c2cnc3ncnn3c2)[nH]c2ccc(C3CCN(C(=O)CN(C)C)CC3)cc12 [Example 554, 1-(4-(2-([1,2,4]triazolo[1,5-a]pyrimidin-6-yl)-3-isopropyl-1H-indol-5-yl)piperidin-1-yl)-2-(dimethylamino)ethan-1-one]	100 to 1000	1000 to 50000	< 100
Cc1cnc2[nH]ncc2c1-c1[nH]c2ccc(C3CCNCC3)cc2c1C(C)C [Example 46, 4-(3-isopropyl-5-(piperidin-4-yl)-1H-indol-2-yl)-5-methyl-1H-pyrazolo[3,4-b]pyridine]	< 100	1000 to 50000	< 100
Cc1cc(-c2[nH]c3ccc(C4CCN(CCS(C)(=O)=O)CC4)cc3c2C(C)C)cn2nnnc12 [Example 789, 6-(3-isopropyl-5-(1-(2-(methylsulfonyl)ethyl)piperidin-4-yl)-1H-indol-2-yl)-8-methyltetrazolo[1,5-a]pyridine]	< 100	1000 to 50000	< 100
CC(C)c1c(-c2ccnc3[nH]ncc23)[nH]c2ccc(C3CCN(C4CCCNCC4)CC3)cc12 (stereo not drawn) [Example 828, 4-(5-(1-(azepan-4-yl)piperidin-4-yl)-3-isopropyl-1H-indol-2-yl)-1H-pyrazolo[3,4-b]pyridine]	< 100	100 to 1000	1000 to 50000
Cc1ccc(-c2[nH]c3ccc(C4CCN(CC(=O)N(C)C)CC4)cc3c2C(C)C)c2ncnn12 [Example 385, 2-(4-(3-isopropyl-2-(5-methyl-[1,2,4]triazolo[1,5-a]pyridin-8-yl)-1H-indol-5-yl)piperidin-1-yl)-N,N-dimethylacetamide]	< 100	1000 to 50000	< 100
CC(C)c1c(-c2ccc3nccn3c2)[nH]c2ccc(C3CCN(C(=O)CN(C)C)CC3)cc12 [Example 572, 2-(dimethylamino)-1-(4-(2-(imidazo[1,2-a]pyridin-6-yl)-3-isopropyl-1H-indol-5-yl)piperidin-1-yl)ethan-1-one]	100 to 1000	1000 to 50000	< 100
Cc1c(-c2[nH]c3ccc(C4CCNCC4)cc3c2C(C)C)nn2ncnc2c1C [Example 32, 6-(3-isopropyl-5-(piperidin-4-yl)-1H-indol-2-yl)-7,8-dimethyl-[1,2,4]triazolo[1,5-b]pyridazine]	< 100	1000 to 50000	< 100
CNCCN1CCC(c2ccc3[nH]c(-c4ccc5ncnn5n4)c(C)c3c2)CC1 [Example 651, 2-(4-(2-([1,2,4]triazolo[1,5-b]pyridazin-6-yl)-3-methyl-1H-indol-5-yl)piperidin-1-yl)-N-methylethan-1-amine]	< 100	< 100	< 100
